{"source": "patent US5576433A", "about": "“Fluorescent calcium indicators targeted to specific intracellular environments” (priority 1994, dated 1996)", "key": {"[1]": {"test_system": "leakage and compartmentalization of fura-2", "details": "cited from earlier work"}, "[2]": {"assay": "pH sensitivity of the calcium dissociation constant (Table 2)", "type": "binding", "details": "100 mM KCl, 10 mM MOPS", "text": "The calcium dissociation constant of BAPTA-like calcium chelators and indicators is strongly affected by electron withdrawing effects of substituents on the BAPTA aromatic rings. The zwitterionic indicators described herein each contain an ionizable amine. The difference in electron withdrawing effects of the ionized and unionized amine could potentially communicate to BAPTA, creating a situation were the calcium affinity varied with pH. The design of PE3 and FFP18 was aimed at minimizing or eliminating this possibility by insulating the ionizable amine from the BAPTA ring with an aliphatic spacer containing one or more carbons. To test the effectiveness of this design, the calcium Kd of PE3 and FFP18 was measured at different pH values and compared to the values obtained for fura-2. […] Thus, the aim of the test was to determine whether the piperazine amino group gives the indicator increased pH sensitivity.\nOn page 36 of U.S. Pat. No. 4,603,209 (Tsien, et. al., 1987 Aug. 25), R2 is claimed as H, CH3, F, Cl, Br and […]. The R2 of PE3 and FFP18 is none of these claimed in that patent."}, "[3]": {"test_system": "intracellular [Ca^2+ ] transients", "assay": "Recorded versus calculated calcium influx", "type": "cell-based", "details": "4 cells", "experimental": "FIG. 13 and FIG. 13A show the relationship between the intracellular [Ca^2+ ] transients over time for fura-2 and FFP18. In Example 7, the relationship between the intracellular [Ca^2+ ] transients reported by FFP18 or fura-2 and calculated [Ca^2+ ] transients representing calcium influx are shown as a function of time. The amount of Ca^2+ entering the cell across the membrane was calculated by integrating the inward current signal and converting the charge to moles of Ca^2+ per cell volume. This [Ca^2+ ] was divided by the average buffering capacity of these cells. […] The [Ca^2+ ] transients reported by the calcium indicators are shown by the more noisy traces.\nThe amount of Ca^2+ entering the cell across the membrane was calculated by integrating the inward current signal and converting the charge to moles of Ca^2+ per cell volume. This [Ca^2+ ] was divided by the average buffering capacity of these cells. […]\nIn 4 cells where the [Ca^2+ ] transient was recorded using fura-2, the magnitude of the recorded and calculated increases in [Ca^2+ ] were similar. The ratio of calcium influx measured using fura-2 to the calcium influx calculated from the integral of the current at the 200 msec time point gives a value of 0.9+/-0.05 [nM (recorded)/nM(calculated)]."}, "Tradescantia cells": {"test_system": "Tradescantia cells", "details": "within a short time; Hepler and Poenie, unpublished; cited from earlier work"}, "muscle calcium": {"test_system": "muscle calcium", "details": "Hollingsworth and Baylor; cited from earlier work"}, "[4]": {"test_system": "calcium transient during mitosis", "details": "Kao et al.; cited from earlier work"}, "322 T lymphoma cells [5]": {"test_system": "322 T lymphoma cells", "assay": "Leakage of indicator from loaded cells / drift of apparent baseline calcium", "type": "cell-based", "details": "for apparent baseline intracellular calcium / dye leakage (in words): cells loaded with AM ester 1 hour, HBSS with 1% fetal bovine serum", "procedure": "The T cell lymphoma cell line was loaded with 1 mM fura-2/AM or 1 mM PE3/AM for 30 minutes. Afterwards, an aliquot of dye loaded cells were placed in a cuvette and the fluorescence at 360 nm was recorded. Then, 5 mM Ni^2+ was added to quench any indicator that was outside the cells. The remainder of the loaded cell suspension was incubated for 1 hour at 37° C. Then a second aliquot was removed placed in a cuvette together with 5 mM Ni^2+ and fluorescence recorded. The difference in fluorescence of Ni^2+ treated cells between the 0 hour time point and the one hour time point represents indicator that leaked out of the cells into the extracellular medium over the 1 hour incubation period.\nA quantity of 322 T-lymphoma cells were loaded with either 1 mM fura-2/AM or 1 mM PE3/AM for 1 hour, washed and resuspended in HBSS containing 1% fetal bovine serum. An aliquot of the loaded cell suspension was then placed in the cuvette of an Alpha Scan fluorometer and the fluorescence signal was recorded over time, as the cells were alternately excited at 340 nm and 380 nm. Calcium concentration was calculated from the 350/385 nm fluorescence ratio as described by Tsien, et al.(1985).\nThe T cell lymphoma cell line was loaded with 1 mM fura-2/AM or 1 nM PE3/AM as for Example 3. Afterwards, an aliquot of dye loaded cells were placed in a cuvette and the fluorescense at 360 nm was recorded. Then 5 nM Ni^2+ was added to quench any indicator that was outside the cells. The remainder of the loaded cell suspension was incubated for 1 hour at 37° C. Then a second aliquot was removed, placed in a cuvette together with 5 mM Ni^2+ and fluorescense recorded. The difference in fluorescense of Ni^2+ treated cells between 0 hour time point and the one hour time point represents indicator that leaked out of the cells into the extracellular medium over the 1 hour incubation period."}, "PTK1 cells": {"test_system": "PTK1 cells", "details": "cited from earlier work"}, "[6]": {"details": "read-out: apparent Kd for EGTA (assumed), cited from earlier work"}, "[7]": {"assay": "Magnesium Kd of indicator (Table 1)", "type": "binding", "experimental": "(§1) The excitation spectrum was recorded of 1 μM FFP18 in 2.5 ml of 130 mM KCl, 20 mM NaCl, 1 mM EGTA, 10 mM MOPS, pH 7.05 at 37° C. Then 25 μl of the solution was replaced with 25 μl of a solution containing 1 μM of that same dye, 111.2 mM MgC12, 12.2 mM EGTA, 10 mM MOPS, pH 7.05. This exchange yielded 1 mM free Mg^2+ 0.2 and 5 mM free Mg^2+ were obtained by successively exchanging 25.25 and 76.53 μl of the original solution with that of the latter solution containing the high concentration of Mg^2+. Emission was collected at 490 nm for fura-PE3 and 485 nm for FFP18, 4 nm band pass, and excitation 5 nm band pass.\nas §1, with “1 μM PE3 in 2.5” for “1 μM FFP18 in 2.5”, “1 μM PE3, 111.2 mM” for “1 μM of that same dye, 111.2 mM”, “mM free Mg^2+. The 2 and 5” for “mM free Mg^2+ 0.2 and 5”, “free Mg^2+ concentrations were obtained” for “free Mg^2+ were obtained”"}, "[8]": {"assay": "Calcium Kd of indicator in solution (Table 1)", "type": "binding", "procedure": "Calcium concentration was varied by adjusting ratio of CaEGTA/EGTA, so that free calcium varied from less than 1 nM to 1 mM. During the titration, temperature was held constant at 37° C. by a circulating water bath and Mg^++ levels were held at a fixed concentration of 1 mM. The excitation spectra were recorded between 300 and 400 nm by a Photon Technology Intl. Alpha Scan fluorometer where the excitation band width was set 6 nm and the emission was collected at 485 nm with 4 nm band width. […] 1M K2 CaEGTA was added directly to the solution to incrementally increase free calcium.\nCalcium concentration was varied by adjusting ratio of CaEGTA/EGTA so that free calcium varied from less than 1 nM to 1 mM. During the titration, temperature was held constant at 37° C. by a circulating water bath and Mg++ levels were held at a fixed concentration of 1 mM. The excitation spectra were recorded between 300 and 400 nm by a Photon Technology Intl. Alpha Scan fluorometer where the excitation band width was set 6 nm and the emission was collected at 485 nm with 4 nm band width. […] 1M K2 CaEGTA was added directly to the solution to incrementally increase free calcium.\n^c 100 mM KCl, 10 mM MOPS, pH 7.3, 20° C."}, "[9]": {"assay": "Spectral properties (absorbance and fluorescence with and without calcium)", "type": "physicochemical"}, "322 T lymphoma cells [10]": {"test_system": "322 T lymphoma cells", "assay": "Response of PE3 loaded cells to changes in intracellular calcium"}, "[11]": {"details": "pH 6.9, 20° C., read-out: calcium Kd at pH 6.9"}, "[12]": {"details": "pH 7.3, 20° C., read-out: calcium Kd at pH 7.3"}}, "note": "Where two headings read alike, the source gives them in different places.", "data": [{"smiles": "O=C1C(CC[S+]([O-])c2ccccc2)C(=O)N(c2ccccc2)N1c1ccccc1", "note": "(stereo not shown) [sulfinpyrazone]", "values": [{"measurement": "effect on leakage and compartmentalization of fura-2", "setting": "[1]", "result": "help reduce leakage and compartmentalization"}]}, {"smiles": "Cc1ccc(N(CC(=O)O)CC(=O)O)c(OCCOc2cc3cc(-c4ncc(C(=O)O)o4)oc3cc2N(CC(=O)O)CC(=O)O)c1", "note": "[fura-2]", "values": [{"measurement": "Kd", "setting": "[2]; [11]", "result": "0.216 ± 0.004", "unit": "µM"}, {"measurement": "Kd", "setting": "[2]; [12]", "result": "0.161 ± 0.002", "unit": "µM"}, {"measurement": "magnitude of recorded versus calculated increase in [Ca^2+ ] (in words)", "setting": "[3]", "result": "similar"}, {"measurement": "ratio of calcium influx recorded by indicator to calcium influx calculated", "setting": "[3]; calculated from integral of the current at the 200 msec time point (time point stated for fura-2)", "result": "0.9+/-0.05 nM (recorded)/nM(calculated)"}, {"measurement": "transfer of cytosolic indicator to vacuole (in words)", "setting": "Tradescantia cells", "result": "virtually all of the cytosolic indicator was transferred to the vacuole"}, {"measurement": "ability to follow rapid changes in muscle calcium", "setting": "muscle calcium", "result": "not fast enough to follow rapid changes in muscle calcium and was unable to track calcium levels at their peak"}, {"measurement": "detection of calcium transient during mitosis", "setting": "[4]", "result": "seldom seen"}, {"measurement": "apparent baseline intracellular calcium / dye leakage (in words)", "setting": "322 T lymphoma cells [5]", "result": "continuous increase in apparent intracellular calcium levels"}]}, {"smiles": "Cc1ccc(N(CC(=O)O)CC(=O)O)c(OCCOc2cc(-c3c4ccc(=[N+](C)C)cc-4oc4cc(N(C)C)ccc34)ccc2N(CC(=O)O)CC(=O)O)c1", "note": "[rhod-2]", "values": [{"measurement": "transfer of cytosolic indicator to vacuole (in words)", "setting": "Tradescantia cells", "result": "differed in this respect"}]}, {"smiles": "CC(=O)OCOC(=O)CN(CC(=O)OCOC(C)=O)c1ccc(C)cc1OCCOc1cc2cc(-c3ncc(C(=O)OCOC(C)=O)o3)oc2cc1N(CC(=O)OCOC(C)=O)CC(=O)OCOC(C)=O", "note": "[fura-2/AM]", "values": [{"measurement": "loading in cells (in words)", "setting": "PTK1 cells", "result": "consistent failure"}]}, {"smiles": "O=C(O)CN(CCOCCOCCN(CC(=O)O)CC(=O)O)CC(=O)O", "note": "[EGTA, ethylene glycol bis(beta-aminoethyl ether)N,N,N'N'tetraacetic acid]", "values": [{"measurement": "Kd", "setting": "[6]; pH 6.9, 20° C.", "result": 0.594, "unit": "µM"}, {"measurement": "Kd", "setting": "[6]; pH 7, 20° C.", "result": 0.0954, "unit": "µM"}]}, {"smiles": "CCCN(CCC)S(=O)(=O)c1ccc(C(=O)O)cc1", "note": "[probenecid]", "values": [{"measurement": "effect on leakage and compartmentalization of fura-2", "setting": "[1]", "result": "help reduce leakage and compartmentalization"}]}, {"smiles": "O=C(O)CN1CCN(C(=O)CCc2ccc(N(CC(=O)O)CC(=O)O)c(OCCOc3cc4cc(-c5ncc(C(=O)O)o5)oc4cc3N(CC(=O)O)CC(=O)O)c2)CC1", "note": "[PE3]", "values": [{"measurement": "Kd", "setting": "[7]; 20° C.", "result": 4300, "unit": "µM"}, {"measurement": "Kd", "setting": "[7]; 37° C.", "result": 4000, "unit": "µM"}, {"measurement": "Kd", "setting": "[2]; [11]", "result": "0.269 ± 0.003", "unit": "µM"}, {"measurement": "Kd", "setting": "[2]; [12]", "result": "0.204 ± 0.004", "unit": "µM"}, {"measurement": "calcium binding affinity compared with fura-2 (in words)", "setting": "[8]", "result": "somewhat weaker than that of fura-2"}, {"measurement": "Kd", "setting": "[8]; 20° C., 100 mM KCl, 10 mM MOPS, pH 7.3 (footnote c)", "result": 0.204, "unit": "µM"}, {"measurement": "Kd", "setting": "[8]; 37° C., 130 mM KCl, 20 mM NaCl, 1 mM free MgCl2, MOPS, pH 7.05 (footnote a)", "result": 0.209, "unit": "µM"}, {"measurement": "leakage and compartmentalization (in words)", "setting": "322 T lymphoma cells [5]", "result": "resists leakage and compartmentalization"}, {"measurement": "apparent baseline intracellular calcium / dye leakage (in words)", "setting": "322 T lymphoma cells [5]", "result": "small change in baseline intracellular calcium levels reflects the lower leakage rate out of the cell"}, {"measurement": "Fluorescence Quantum Efficiency, Ca bound", "setting": "[9]; Ca bound", "result": 0.27}, {"measurement": "Peak Absorption Wavelength, Ca bound", "setting": "[9]; Ca bound", "result": 335, "unit": "nm"}, {"measurement": "Peak Emission Wavelength, Ca bound", "setting": "[9]; Ca bound", "result": 495, "unit": "nm"}, {"measurement": "Fluorescence Quantum Efficiency, Free anion", "setting": "[9]; Free anion", "result": ".043"}, {"measurement": "Peak Absorption Wavelength, Free anion", "setting": "[9]; Free anion", "result": 364, "unit": "nm"}, {"measurement": "Peak Emission Wavelength, Free anion", "setting": "[9]; Free anion", "result": 508, "unit": "nm"}, {"measurement": "absorbance, excitation, emission and quantum efficiency (in words)", "setting": "[9]; presence and absence of calcium", "result": "all typical of fura-2"}, {"measurement": "fluorescence response at 340 nm to increase in calcium", "setting": "322 T lymphoma cells [10]; after Concanavalin A", "result": "fluorescense at 340 nm increases"}, {"measurement": "fluorescence response at 380 nm to increase in calcium", "setting": "322 T lymphoma cells [10]; after Concanavalin A", "result": "fluorescense at 380 nm decreases"}, {"measurement": "fluorescence response at 340 nm and 380 nm", "setting": "322 T lymphoma cells [10]; after ionomycin", "result": "even greater response of the indicator at 340 nm and 380 nm"}, {"measurement": "fluorescence after reducing free calcium with EGTA", "setting": "322 T lymphoma cells [10]; digitonin lysed, EGTA added", "result": "fluorescense at 380 nm now becomes much brighter while the fluorescense at 340 becomes dim"}]}]}
